According to PubChem BioAssay (NCI):
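Protocol summary: plate cells (96-well), add compound at 5 concentrations, incubate 48 h, interpolate endpoints linearly. TGI: concentration producing complete growth inhibition.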

Legend:
Experiment in all cases: growth of human tumour cells (NCI), 48 h
UO-31 renal = tested on: UO-31 renal
SF-539 CNS = tested on: SF-539 CNS
OVCAR-3 ovarian = tested on: OVCAR-3 ovarian
SNB-19 CNS = tested on: SNB-19 CNS
RPMI-8226 leukemia = tested on: RPMI-8226 leukemia
MDA-MB-435 = tested on: MDA-MB-435
OVCAR-8 ovarian = tested on: OVCAR-8 ovarian
CCRF-CEM leukemia = tested on: CCRF-CEM leukemia
MOLT-4 leukemia = tested on: MOLT-4 leukemia
MDA-MB-231 breast = tested on: MDA-MB-231 breast
HOP-92 NSCLC = tested on: HOP-92 NSCLC
MCF7 breast = tested on: MCF7 breast
DU-145 prostate = tested on: DU-145 prostate
OVCAR-5 ovarian = tested on: OVCAR-5 ovarian
COLO 205 colon = tested on: COLO 205 colon
EKVX NSCLC = tested on: EKVX NSCLC
SN12C renal = tested on: SN12C renal
HCT-116 colon = tested on: HCT-116 colon
M14 melanoma = tested on: M14 melanoma
MALME-3M melanoma = tested on: MALME-3M melanoma
KM12 colon = tested on: KM12 colon
UACC-62 melanoma = tested on: UACC-62 melanoma
HOP-62 NSCLC = tested on: HOP-62 NSCLC
SK-MEL-5 melanoma = tested on: SK-MEL-5 melanoma
SK-MEL-2 melanoma = tested on: SK-MEL-2 melanoma
SF-268 CNS = tested on: SF-268 CNS
A549 NSCLC = tested on: A549 NSCLC
IGROV1 ovarian = tested on: IGROV1 ovarian
SK-MEL-28 melanoma = tested on: SK-MEL-28 melanoma
HT29 colon = tested on: HT29 colon
NCI-H460 lung = tested on: NCI-H460 lung
UACC-257 melanoma = tested on: UACC-257 melanoma
BT-549 breast = tested on: BT-549 breast
A498 renal = tested on: A498 renal
T-47D breast = tested on: T-47D breast
LOX IMVI melanoma = tested on: LOX IMVI melanoma
NCI-H23 lung = tested on: NCI-H23 lung
SR leukemia = tested on: SR leukemia
ACHN renal = tested on: ACHN renal
HL-60(TB) leukemia = tested on: HL-60(TB) leukemia
U251 CNS = tested on: U251 CNS
RXF 393 renal = tested on: RXF 393 renal
NCI/ADR-RES ovarian = tested on: NCI/ADR-RES ovarian
HCT-15 colon = tested on: HCT-15 colon
CAKI-1 renal = tested on: CAKI-1 renal
NCI-H226 lung = tested on: NCI-H226 lung
PC-3 prostate = tested on: PC-3 prostate
786-0 renal = tested on: 786-0 renal
NCI-H522 lung = tested on: NCI-H522 lung
SW-620 colon = tested on: SW-620 colon
K-562 leukemia = tested on: K-562 leukemia
HS 578T breast = tested on: HS 578T breast
SNB-75 CNS = tested on: SNB-75 CNS
OVCAR-4 ovarian = tested on: OVCAR-4 ovarian
MDA-N = tested on: MDA-N
SF-295 CNS = tested on: SF-295 CNS
TK-10 renal = tested on: TK-10 renal
SK-OV-3 ovarian = tested on: SK-OV-3 ovarian
HCC-2998 colon = tested on: HCC-2998 colon

`CC1=NN2C(=N)/C(=C/c3ccccc3)C(=O)N=C2S1` gave a TGI (UO-31 renal) of over 100 µM, a TGI (SF-539 CNS) of over 100 µM and a TGI (OVCAR-3 ovarian) of over 100 µM. The TGI (SNB-19 CNS) was over 100 µM, the TGI (RPMI-8226 leukemia) was over 100 µM and the TGI (MDA-MB-435) was over 100 µM. The TGI (OVCAR-8 ovarian) was over 100 µM, the TGI (CCRF-CEM leukemia) was over 100 µM and the TGI (MOLT-4 leukemia) was over 100 µM. The TGI (MDA-MB-231 breast) was over 100 µM, the TGI (HOP-92 NSCLC) was over 100 µM and the TGI (MCF7 breast) was over 33.6 µM. It also gave a TGI (DU-145 prostate) of over 100 µM, a TGI (OVCAR-5 ovarian) of over 100 µM and a TGI (COLO 205 colon) of over 100 µM. For the same compound, the TGI (EKVX NSCLC) was over 100 µM, the TGI (SN12C renal) was over 100 µM and the TGI (HCT-116 colon) was over 100 µM. The TGI (M14 melanoma) was over 100 µM, the TGI (MALME-3M melanoma) was over 100 µM and the TGI (KM12 colon) was over 100 µM. For the same compound, the TGI (UACC-62 melanoma) was over 100 µM, the TGI (HOP-62 NSCLC) was over 100 µM and the TGI (SK-MEL-5 melanoma) was over 100 µM. The TGI (SK-MEL-2 melanoma) was over 100 µM, the TGI (SF-268 CNS) was over 100 µM and the TGI (A549 NSCLC) was over 100 µM. For the same compound, the TGI (IGROV1 ovarian) was over 100 µM, the TGI (SK-MEL-28 melanoma) was over 100 µM and the TGI (HT29 colon) was over 100 µM. It also gave a TGI (NCI-H460 lung) of over 100 µM, a TGI (UACC-257 melanoma) of over 100 µM and a TGI (BT-549 breast) of over 100 µM. It also gave a TGI (A498 renal) of over 100 µM, a TGI (T-47D breast) of over 100 µM and a TGI (LOX IMVI melanoma) of over 100 µM. It also gave a TGI (NCI-H23 lung) of over 100 µM, a TGI (SR leukemia) of over 100 µM and a TGI (ACHN renal) of over 100 µM. The TGI (HL-60(TB) leukemia) was over 100 µM, the TGI (U251 CNS) was over 100 µM and the TGI (RXF 393 renal) was over 100 µM. It also gave a TGI (NCI/ADR-RES ovarian) of over 51 µM, a TGI (HCT-15 colon) of over 100 µM and a TGI (CAKI-1 renal) of over 100 µM. It also gave a TGI (NCI-H226 lung) of over 100 µM, a TGI (PC-3 prostate) of over 100 µM and a TGI (786-0 renal) of over 100 µM. For the same compound, the TGI (NCI-H522 lung) was over 100 µM, the TGI (SW-620 colon) was over 100 µM and the TGI (K-562 leukemia) was over 100 µM. It also gave a TGI (HS 578T breast) of over 100 µM, a TGI (SNB-75 CNS) of over 100 µM and a TGI (OVCAR-4 ovarian) of over 100 µM. The TGI (MDA-N) was over 100 µM, the TGI (SF-295 CNS) was over 100 µM and the TGI (TK-10 renal) was over 100 µM. For the same compound, the TGI (SK-OV-3 ovarian) was over 100 µM and the TGI (HCC-2998 colon) was over 100 µM.

In the case of `CNC(=O)N(CCC#N)CCCN(C(=O)N(C)C)c1ccccc1`, the TGI (UO-31 renal) is reported as over 100 µM, the TGI (SF-539 CNS) is reported as over 100 µM and the TGI (OVCAR-3 ovarian) is reported as over 100 µM. For the same compound, the TGI (SNB-19 CNS) was over 100 µM, the TGI (RPMI-8226 leukemia) was over 100 µM and the TGI (MDA-MB-435) was over 100 µM. The TGI (OVCAR-8 ovarian) was over 100 µM, the TGI (CCRF-CEM leukemia) was over 100 µM and the TGI (MOLT-4 leukemia) was over 100 µM. For the same compound, the TGI (MDA-MB-231 breast) was over 100 µM, the TGI (HOP-92 NSCLC) was over 100 µM and the TGI (MCF7 breast) was over 100 µM. The TGI (DU-145 prostate) was over 100 µM, the TGI (OVCAR-5 ovarian) was over 100 µM and the TGI (COLO 205 colon) was over 100 µM. It also gave a TGI (EKVX NSCLC) of over 100 µM, a TGI (SN12C renal) of over 100 µM and a TGI (HCT-116 colon) of over 100 µM. It also gave a TGI (M14 melanoma) of over 100 µM, a TGI (MALME-3M melanoma) of over 100 µM and a TGI (KM12 colon) of over 100 µM. For the same compound, the TGI (UACC-62 melanoma) was over 100 µM, the TGI (HOP-62 NSCLC) was over 100 µM and the TGI (SK-MEL-5 melanoma) was over 100 µM. The TGI (SK-MEL-2 melanoma) was over 100 µM, the TGI (SF-268 CNS) was over 100 µM and the TGI (A549 NSCLC) was over 100 µM. It also gave a TGI (IGROV1 ovarian) of over 100 µM, a TGI (SK-MEL-28 melanoma) of over 100 µM and a TGI (HT29 colon) of over 100 µM. For the same compound, the TGI (NCI-H460 lung) was over 100 µM, the TGI (UACC-257 melanoma) was over 100 µM and the TGI (BT-549 breast) was over 100 µM. For the same compound, the TGI (A498 renal) was over 100 µM, the TGI (T-47D breast) was over 100 µM and the TGI (LOX IMVI melanoma) was over 100 µM. The TGI (NCI-H23 lung) was over 100 µM, the TGI (SR leukemia) was over 100 µM and the TGI (ACHN renal) was over 100 µM. The TGI (HL-60(TB) leukemia) was over 100 µM, the TGI (U251 CNS) was over 100 µM and the TGI (RXF 393 renal) was over 100 µM. It also gave a TGI (NCI/ADR-RES ovarian) of over 100 µM, a TGI (HCT-15 colon) of over 100 µM and a TGI (CAKI-1 renal) of over 100 µM. It also gave a TGI (NCI-H226 lung) of over 100 µM, a TGI (PC-3 prostate) of over 100 µM and a TGI (786-0 renal) of over 100 µM. It also gave a TGI (NCI-H522 lung) of over 100 µM, a TGI (SW-620 colon) of over 100 µM and a TGI (K-562 leukemia) of over 100 µM. For the same compound, the TGI (HS 578T breast) was over 100 µM, the TGI (SNB-75 CNS) was over 100 µM and the TGI (OVCAR-4 ovarian) was over 100 µM. The TGI (MDA-N) was over 100 µM, the TGI (SF-295 CNS) was over 100 µM and the TGI (TK-10 renal) was over 100 µM. For the same compound, the TGI (SK-OV-3 ovarian) was over 100 µM and the TGI (HCC-2998 colon) was over 100 µM.
